Data published in article PMC7753040, “Discovery of a Potent RIPK3 Inhibitor for the Amelioration of Necroptosis-Associated Inflammatory Injury” (Frontiers in Cell and Developmental Biology, 2020).

What was measured:
CYP3A4 = CYP3A4 (Homo sapiens, UniProt P08684); assay: Cytochrome P450 inhibition, CYP3A4; format: in vitro ADME
Protocol: (§1) Cytochrome P450 (CYP) inhibitory potency was determined by industrial standard methods as reported previously ([Dong et al., 2015]). Methods to determine potassium channel hERG inhibition and in vivo pharmacokinetic parameters have been previously published ([Lu et al., 2017]).

HSV-1 ICP6 = assay: Expression of viral gene ICP6 after HSV-1 infection of L929 cells (real-time PCR); format: cell-based, herpes simplex virus (HSV)-1; conditions: culture supernatants 5 h post HSV-1 infection
Protocol: Total RNA was extracted using TRIzol Reagent (Invitrogen) from cell pellets. cDNA was synthesized using a Revert Aid First Strand cDNA kit (Thermo Fisher Scientifc). Real-time PCR was performed using corresponding primers and Power SYBR® Green PCR Master Mix (Invitrogen). The data were normalized to GAPDH. The primer sequences are as follows: ICP6 Forward: […] , Reverse: GGT […]; TNFα Forward: […] , Reverse: […]; CCL3 Forward: […] , Reverse: […]; CXCL1 Forward: GCACCC […] , Reverse: […] CAGA; GAPDH Forward: […] , Reverse: […] .
Cell viability was determined by measuring ATP levels. L, LPS; Z, z-VAD. […] After 5 h, cell viability was determined by measuring ATP levels and ICP6 mRNA expression was detected using viral genome extracted from cell culture supernatant. *P < 0.05. **P < 0.01. ***P < 0.001.

HeLa-MLKL (1–190) cells = assay: MLKL polymerization-induced necroptosis in HeLa-MLKL (1-190) cells (AP20187); format: cell-based, human; conditions: doxycycline 1 μg/ml 24 h, 2 h pretreatment, AP20187 60 nM 24 h
Text: (§2) Human colon cancer HT-29 and mouse fibrosarcoma L929 cells were from ATCC. Mouse embryonic fibroblasts (MEF), HT-29 cells stably expressing RIPK3-shRNA and shRNA resistant scramble Flag-tagged RIPK3 (W46), and NIH3T3 cell line stably expressing RIPK3 fused to mutant FK506-binding protein (NIH3T3-RIPK3) were kindly provided by Dr. Xiaodong Wang [National Institute of Biological Sciences (NIBS), Beijing]. HeLa-MLKL (1-190) cell line was a gift from Dr. Zhigao Wang (University of Texas Southwestern Medical Center at Dallas). These cells were cultured in Dulbecco’s modified Eagle’s medium (Hyclone) supplemeted with 10% fetal bovine serum (Invitrogen) and 2 mM L-glutamine (Invitrogen) in a humidified incubator at 37°C and 5% CO2. […]
(§3) Cells were seeded in 96-well plates and then treated as indicated. The cell viability was determined by assessment of ATP levels using the CellTiter-Glo Luminescent Cell Viability Assay kit following the manufacture’s instructions (Promega). Luminescence was calculated with SpectraMax i3x (Molecular Devices).
In vitro kinase activity assays using recombinant RIPK3 and RIPK1 were performed as described in the section “Materials and Methods.” Data represent mean value ± standard deviation. […] Cell viability was determined by measuring ATP levels. […] Cell viability was determined by measuring ATP levels. […]

RIPK1/RIPK3 complex = molecular target: T1, RIPK1/RIPK3 complex (Homo sapiens, UniProt Q9Y572); assay: RIPK1/RIPK3 necrosome formation in HT-29 cells stably expressing Flag-RIPK3 (immunoprecipitation); format: cell-based; conditions: TNF-α/Smac/z-VAD 8 h
T1 construct: expressed in transfected cells; host or cells: HT-29 (W46), gift of Dr. Xiaodong Wang
T1 sequence (Q9Y572 whole entry): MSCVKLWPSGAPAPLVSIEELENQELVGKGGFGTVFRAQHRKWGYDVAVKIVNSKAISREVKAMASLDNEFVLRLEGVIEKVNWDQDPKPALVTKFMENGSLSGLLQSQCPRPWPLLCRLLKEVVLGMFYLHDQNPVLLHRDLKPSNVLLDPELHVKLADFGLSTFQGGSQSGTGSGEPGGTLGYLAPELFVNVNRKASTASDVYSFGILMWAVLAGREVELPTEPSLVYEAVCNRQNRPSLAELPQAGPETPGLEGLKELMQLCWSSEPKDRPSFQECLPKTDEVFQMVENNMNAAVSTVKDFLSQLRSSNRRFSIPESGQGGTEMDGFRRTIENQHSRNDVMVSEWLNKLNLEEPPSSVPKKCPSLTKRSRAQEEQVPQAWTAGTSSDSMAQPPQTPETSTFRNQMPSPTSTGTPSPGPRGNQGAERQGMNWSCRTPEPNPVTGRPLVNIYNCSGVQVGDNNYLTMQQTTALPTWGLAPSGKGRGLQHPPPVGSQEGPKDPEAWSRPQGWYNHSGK
T1 sequence (Q13546 whole entry partner): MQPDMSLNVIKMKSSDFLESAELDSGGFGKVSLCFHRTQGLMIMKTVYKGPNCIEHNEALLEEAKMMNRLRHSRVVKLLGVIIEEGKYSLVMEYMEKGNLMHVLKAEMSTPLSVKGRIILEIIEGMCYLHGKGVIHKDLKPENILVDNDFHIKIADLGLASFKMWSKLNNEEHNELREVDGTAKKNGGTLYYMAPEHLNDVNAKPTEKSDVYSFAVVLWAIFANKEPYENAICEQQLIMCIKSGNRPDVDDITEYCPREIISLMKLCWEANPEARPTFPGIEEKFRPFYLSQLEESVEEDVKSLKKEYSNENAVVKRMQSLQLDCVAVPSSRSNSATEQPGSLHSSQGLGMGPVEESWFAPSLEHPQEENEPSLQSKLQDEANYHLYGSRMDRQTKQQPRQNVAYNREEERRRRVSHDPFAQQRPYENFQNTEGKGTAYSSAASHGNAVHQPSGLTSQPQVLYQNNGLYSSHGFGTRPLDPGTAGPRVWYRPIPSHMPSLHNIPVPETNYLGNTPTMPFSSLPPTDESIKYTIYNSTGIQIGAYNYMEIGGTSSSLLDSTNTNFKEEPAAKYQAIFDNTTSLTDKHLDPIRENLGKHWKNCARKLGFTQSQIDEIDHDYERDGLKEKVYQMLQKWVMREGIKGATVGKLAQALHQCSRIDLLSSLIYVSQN
Protocol: The cell pellets were harvested and dissolved in lysis buffer (20 mM Tris–HCl, pH 7.4 150 mM NaCl, 1% Triton X-100, 1 mM Na3VO4, 10% glycerol, 25 mM β-glycerol-phosphate, 0.1 mM PMSF, with the Sigma phosphatase inhibitors and the Roche Pierce protease inhibitor set). The re-suspended cell pellet was then incubated on ice for 20 min, followed by centrifugation at 13000 × g for 20 min at 4°C. The supernatants were collected and protein concentrations were measured using the BCA Protein Assay Kit (Thermo Fisher Scientifc, United States). Finally, cell lysates were subjected for western-blot analysis of the indicated antibodies.
Cell lysates were prepared for immunoprecipitation using an anti-Flag antibody. The levels of RIPK3 and RIPK1 in the immunocomplex were determined by western blot analysis.

[1] = Metabolic stability in rat liver microsomes; format: in vitro ADME
CYP2D6 = CYP2D6 (Homo sapiens, UniProt P10635); assay: Cytochrome P450 inhibition, CYP2D6; format: in vitro ADME
Chain of CYP2D6 (P10635 whole entry): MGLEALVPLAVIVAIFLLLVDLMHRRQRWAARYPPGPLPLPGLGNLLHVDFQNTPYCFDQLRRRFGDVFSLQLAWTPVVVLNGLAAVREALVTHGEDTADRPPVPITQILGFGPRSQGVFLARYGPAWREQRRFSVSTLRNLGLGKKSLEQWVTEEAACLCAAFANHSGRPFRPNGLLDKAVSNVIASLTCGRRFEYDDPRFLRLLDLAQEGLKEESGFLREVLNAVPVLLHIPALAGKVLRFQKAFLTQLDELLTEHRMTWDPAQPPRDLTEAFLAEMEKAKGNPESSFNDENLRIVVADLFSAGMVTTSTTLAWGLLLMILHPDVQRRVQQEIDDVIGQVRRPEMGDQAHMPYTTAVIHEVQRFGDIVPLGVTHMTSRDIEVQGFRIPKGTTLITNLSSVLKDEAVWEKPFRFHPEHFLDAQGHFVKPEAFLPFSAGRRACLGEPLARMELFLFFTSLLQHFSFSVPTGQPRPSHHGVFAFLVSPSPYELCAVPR
Protocol: as §1

[2] = tested on: rat bone marrow derived macrophages; assay: TLR4-mediated necroptosis induced by LPS/z-VAD in rat bone marrow-derived macrophages; format: cell-based; conditions: rat BMDM; 2 h pretreatment, LPS 20 ng/ml plus z-VAD for 24 h
Text: as §2, with “CO2. NIH3T3-RIPK3 was cultured in complete medium containing […] G418 (Calbiochem).” for “CO2.”
as §3
(§4) Cell viability was determined by measuring ATP levels. […] After 5 h, cell viability was determined by measuring ATP levels and ICP6 mRNA expression was detected using viral genome extracted from cell culture supernatant. *P < 0.05. **P < 0.01. ***P < 0.001.

hERG = hERG (Homo sapiens, UniProt Q12809); assay: hERG inhibition (standard patch clamp); format: cell-based
Chain of hERG (Q12809 whole entry): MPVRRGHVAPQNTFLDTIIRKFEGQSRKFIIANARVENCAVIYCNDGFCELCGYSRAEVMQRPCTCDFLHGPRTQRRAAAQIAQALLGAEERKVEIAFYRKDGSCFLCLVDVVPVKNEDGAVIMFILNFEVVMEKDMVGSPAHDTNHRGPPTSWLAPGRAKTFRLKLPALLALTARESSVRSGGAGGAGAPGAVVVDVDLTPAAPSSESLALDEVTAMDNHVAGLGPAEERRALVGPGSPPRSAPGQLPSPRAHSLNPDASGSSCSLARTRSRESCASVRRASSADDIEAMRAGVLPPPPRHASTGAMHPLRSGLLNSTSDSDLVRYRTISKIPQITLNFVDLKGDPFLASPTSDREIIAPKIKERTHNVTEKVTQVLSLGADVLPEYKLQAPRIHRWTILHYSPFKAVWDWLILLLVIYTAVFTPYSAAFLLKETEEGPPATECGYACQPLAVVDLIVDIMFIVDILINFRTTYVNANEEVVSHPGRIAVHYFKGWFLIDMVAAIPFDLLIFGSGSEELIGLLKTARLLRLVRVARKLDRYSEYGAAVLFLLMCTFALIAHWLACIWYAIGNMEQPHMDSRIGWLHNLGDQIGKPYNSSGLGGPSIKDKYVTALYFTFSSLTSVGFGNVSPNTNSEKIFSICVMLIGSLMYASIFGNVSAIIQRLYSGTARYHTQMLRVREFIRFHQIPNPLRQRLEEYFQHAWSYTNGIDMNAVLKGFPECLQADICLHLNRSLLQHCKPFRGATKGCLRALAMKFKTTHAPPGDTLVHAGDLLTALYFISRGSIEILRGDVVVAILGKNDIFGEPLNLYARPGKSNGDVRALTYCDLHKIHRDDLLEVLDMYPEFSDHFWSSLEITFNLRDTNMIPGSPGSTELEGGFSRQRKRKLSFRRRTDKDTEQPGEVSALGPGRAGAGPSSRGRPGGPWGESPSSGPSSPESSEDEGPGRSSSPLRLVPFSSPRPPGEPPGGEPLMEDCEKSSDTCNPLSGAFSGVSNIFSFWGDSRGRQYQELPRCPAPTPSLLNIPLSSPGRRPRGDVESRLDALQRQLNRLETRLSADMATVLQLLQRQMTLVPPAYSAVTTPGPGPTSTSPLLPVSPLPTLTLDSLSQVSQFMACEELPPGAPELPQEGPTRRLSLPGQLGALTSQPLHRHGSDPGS
Protocol: as §1

human RIPK1 = molecular target: T2, human RIPK1 (Homo sapiens, UniProt Q13546); assay: In vitro kinase activity assay (ADP-Glo), RIPK1; format: biochemical; conditions: at 10 μM; ATP 50 μM, MBP 20 μM
T2 construct: purchased SignalChem
T2 sequence (Q13546 1-327 limits assumed): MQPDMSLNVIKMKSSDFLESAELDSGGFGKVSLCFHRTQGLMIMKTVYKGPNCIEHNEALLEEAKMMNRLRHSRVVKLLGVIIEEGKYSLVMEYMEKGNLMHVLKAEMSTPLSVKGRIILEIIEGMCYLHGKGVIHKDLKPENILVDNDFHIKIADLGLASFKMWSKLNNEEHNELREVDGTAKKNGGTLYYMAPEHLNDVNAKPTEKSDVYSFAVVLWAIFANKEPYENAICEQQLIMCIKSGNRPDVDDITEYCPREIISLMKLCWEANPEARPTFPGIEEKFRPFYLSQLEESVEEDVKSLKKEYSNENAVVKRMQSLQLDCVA
Protocol: (§5) The recombinant human RIPK1 or RIPK3 protein was incubated with the control DMSO or the indicated compound for around 15 min in the assay buffer (25 mM HEPES PH7.2, 12.5 mM MnCl2, 5 mM EGTA, 20 mM MgCl2, 12.5 mM β-glycerol phosphate, 2 mM EDTA, and 2 mM DTT). ATP (50 μM) and the substrate MBP (20 μM) were then added to the reaction at room temperature for 2 h. The kinase activity was calculated by the measuring the luminescence after the addition of the ADP-Glo Kinase Assay kit according to the manufacture’s instructions (Promega).
(§6) In vitro kinase activity assays using recombinant RIPK3 and RIPK1 were performed as described in the section “Materials and Methods.” Data represent mean value ± standard deviation. […] NIH3T3-RIPK3 cells were pretreated with indicated compounds for 2 h and subsequently treated with AP20187 (60 nM) for 24 h. Cell viability was determined by measuring ATP levels. […] HeLa-MLKL (1–190) cells were induced by doxycycline (1 μg/ml) for 24 h. Cells were pretreated with indicated compounds for 2 h and subsequently treated with AP20187 (60nM) for 24h. Cell viability was determined by measuring ATP levels. […] (F) MEFs were treated as indicated for 3 h. Cell lysates were harvest and subjected to western-blot analysis for full length and cleaved caspase 3.

CYP2C9 = CYP2C9 (Homo sapiens, UniProt P11712); assay: Cytochrome P450 inhibition, CYP2C9; format: in vitro ADME
Chain of CYP2C9 (P11712 whole entry): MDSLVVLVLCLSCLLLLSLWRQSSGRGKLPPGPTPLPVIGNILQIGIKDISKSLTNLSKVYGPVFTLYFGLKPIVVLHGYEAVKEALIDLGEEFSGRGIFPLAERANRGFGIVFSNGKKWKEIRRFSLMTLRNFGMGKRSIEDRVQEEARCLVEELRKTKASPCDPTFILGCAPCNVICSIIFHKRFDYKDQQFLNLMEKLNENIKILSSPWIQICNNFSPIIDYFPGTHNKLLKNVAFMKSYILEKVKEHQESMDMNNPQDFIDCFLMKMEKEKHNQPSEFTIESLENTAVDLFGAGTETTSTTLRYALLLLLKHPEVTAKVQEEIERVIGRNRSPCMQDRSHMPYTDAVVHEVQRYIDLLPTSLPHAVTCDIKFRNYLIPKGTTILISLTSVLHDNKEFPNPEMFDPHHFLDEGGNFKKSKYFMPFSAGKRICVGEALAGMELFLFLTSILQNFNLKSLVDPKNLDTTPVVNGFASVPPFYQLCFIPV
Protocol: as §1

C57BL/6 mice = assay: TNF-induced systemic inflammatory response syndrome in mice
Protocol: The status of mice was monitored by measuring anal temperature. Mice mortality was continuously monitored till 60 h after TNF-α administration. Blood was collected 4 h post TNF-α challenge and serum was isolated for further examination.
(A,B) The survival rate (A) and body temperature loss (B) were monitored. […] P-values were determined using the ONE-way ANOVA and multi-comparison test for statistics analysis. (C) After 4 h, serum was collected for mouse IL6 level analysis by ELISA. Data are represented as the mean ± standard deviation.

[3] = Metabolic stability in human liver microsomes; format: in vitro ADME
Text: Encouraged by the in vitro and in vivo efficacy data, we sought to evaluate the preliminary drugability profile of Zharp-99.
(C) Pharmacokinetic parameters of Zharp-99 determined in male ICR mouse.

[4] = tested on: mouse bone marrow derived macrophages; assay: TLR4-mediated necroptosis induced by LPS/z-VAD in mouse bone marrow-derived macrophages; format: cell-based; conditions: mouse BMDM; 2 h pretreatment, LPS 20 ng/ml plus z-VAD for 24 h
Text: as §2, with “CO2. NIH3T3-RIPK3 was cultured in complete medium containing […] G418 (Calbiochem).” for “CO2.”
as §3, §4

human RIPK3 = molecular target: T3, human RIPK3 (Homo sapiens, UniProt Q9Y572); assay: In vitro kinase activity assay (ADP-Glo), RIPK3; format: biochemical; conditions: ATP 50 μM, MBP 20 μM; compared to GSK’872
T3 construct: purchased SignalChem
T3 sequence (Q9Y572 whole entry): as the sequence (Q9Y572 whole entry) above
Protocol: as §5, §6

HT-29 cells = assay: TNF-induced necroptosis in HT-29 cells (cell viability, ATP levels); format: cell-based, human; conditions: 2 h pretreatment, then TNF-α 40 ng/ml, Smac mimetic 100 nM, z-VAD 20 μM for 48 h, focused library, compared to GSK’872
Protocol: as §3
To discover novel inhibitors of necroptosis, we designed and synthesized a focused library with novel structures based on the GSK’872 scaffold.
Cell viability was assessed by measuring ATP levels. […] T, TNF-α; S, Smac mimetic; Z, z-VAD.

[5] = 5 mg/kg i.p. 15 min before mouse TNF-α 6.5 μg/mouse i.v.

Chain of CYP3A4 (P08684 whole entry): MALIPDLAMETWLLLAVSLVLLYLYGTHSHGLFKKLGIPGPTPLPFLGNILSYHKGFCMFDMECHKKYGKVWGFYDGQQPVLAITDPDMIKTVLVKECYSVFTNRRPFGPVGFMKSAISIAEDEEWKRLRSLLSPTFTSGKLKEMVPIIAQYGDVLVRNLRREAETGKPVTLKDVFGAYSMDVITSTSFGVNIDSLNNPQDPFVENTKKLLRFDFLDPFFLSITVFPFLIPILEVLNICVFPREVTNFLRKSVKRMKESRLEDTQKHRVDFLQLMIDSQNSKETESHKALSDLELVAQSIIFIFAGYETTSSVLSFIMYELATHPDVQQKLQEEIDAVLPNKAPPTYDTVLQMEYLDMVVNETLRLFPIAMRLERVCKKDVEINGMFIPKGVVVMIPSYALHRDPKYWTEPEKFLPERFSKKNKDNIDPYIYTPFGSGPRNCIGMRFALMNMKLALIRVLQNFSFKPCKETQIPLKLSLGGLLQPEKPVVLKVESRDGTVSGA

SMILES: O=S1(=O)C=C(C2CC2)c2cc3nccc(Nc4ccc5scnc5c4)c3cc21 [Zharp-99]
- % of CYP inhibiton CYP3A4 (CYP3A4; 10 μM): did not inhibit
- inhibition at 10 µM (CYP3A4; human, read-out: % of CYP inhibiton CYP3A4): 5.04%
- effect on expression of viral gene ICP6 (HSV-1 ICP6): did not affect
- polymerized MLKL-induced necroptosis (HeLa-MLKL (1–190) cells): did not affect
- RIPK1/RIPK3 necrosome formation (RIPK1/RIPK3 complex): did not affect
- CLint scaled ([1]; rat liver microsomes): 4.02 L/h/kg
- Clint ([1]; rat liver microsomes): moderate
- half-life ([1]; rat liver microsomes (RLM)): 37 min
- % of CYP inhibiton 2D6 (CYP2D6; 10 μM): did not inhibit
- inhibition at 10 µM (CYP2D6; human, read-out: % of CYP inhibiton 2D6): -0.44%
- inhibition of TLR4-mediated necroptosis induced by LPS/z-VAD [2]: potently blocked
- IC50 (hERG): > 10 µM
- effect on RIPK1 kinase activity (human RIPK1): did not affect
- % of CYP inhibiton 2C9 (CYP2C9; 10 μM): did not inhibit
- inhibition at 10 µM (CYP2C9; human, read-out: % of CYP inhibiton 2C9): -5.59%
- TNFα-induced temperature loss (C57BL/6 mice; [5]): ameliorated
- protection against TNFα-induced lethal shock (survival) (C57BL/6 mice; [5]): significantly protected
- TNFα-induced production of IL-6 in the serum (C57BL/6 mice; 5 mg/kg i.p., serum 4 h post TNF-α, ELISA): reduced
- CLint scaled [3]: 3.78 L/h/kg
- Clint [3]: moderate
- half-life [3]: 28 min
- inhibition of TLR4-mediated necroptosis induced by LPS/z-VAD [4]: potently blocked
- inhibition of the kinase activity of human RIPK3 in vitro (human RIPK3): higher inhibitory activity compared to GSK’872
- inhibition of TNF-induced necroptosis (HT-29 cells): most efficient inhibitor
